The data set can be described thus: recombinant UMI read abundance after kanamycin selection (control-corrected) (log10(CPM+1)); higher = more efficient recombination; extreme values may be limits of the assay; sequences stand for … in AGTGCAGAGAAAATCGGCCAGTTTTCTCTGCCTGCAGTCCGCATGCCGTGGGACCCCTTGGGTTCTAACCTGTTGCCTAGATTTATGCAGCGGACTGCCTTTCTCCCAAAGTGATAAACCGG…AGGTTGGTTTCACT; site = the 11-nt donor. An outline of the steps: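 Pooled Escherichia coli screen of donor and donor-binding-loop pairs for the IS621 bridge recombinase. Each pair sits with a 12-nt UMI on a plasmid carrying a promoterless kanamycin gene. The library was co-electroporated with a target plasmid encoding a fixed target and T7-inducible recombinase, then plated with IPTG (0.07 mM) plus kanamycin, or unselected, each in two replicates. Recombinant UMIs were PCR-amplified across the donor–target junction and sequenced. Counts became CPM, averaged over replicates, scaled by control-derived factors and reported as log10(CPM+1).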
As for “GCCACGCCATGGACCGGTTTTCCCGGTAATCCGTATTTGTA (site GCCACGCCTTA)”, the “recombinant UMI read abundance (log10)” value came out at 0.289.

“GCCACGCCATGGACCGGTTTTCCCGGTAATCCGTATTTGTA (site GCCACGCCTTC)”: the “recombinant UMI read abundance (log10)” value turned out to be 0.00289.

Consider “GCCACGCCATGGACCGGTTTTCCCGGTAATCCGTATTTGTA (site GCCACGCCTTG)”, for which the “recombinant UMI read abundance (log10)” value came out at 0.0133.

Take “GCCACGCCATGGACCGGTTTTCCCGGTAATCCGTATTTGTA (site GCCACGCCTTT)”: the “recombinant UMI read abundance (log10)” value was 0.0209.

With “GCCACGCCATGGACCGGTTTTCCCGGTAATCCGTATTTGTA (site GCCACGGCTTA)”, the “recombinant UMI read abundance (log10)” value turned out to be 0.0146.

As to “GCCACGCCATGGACCGGTTTTCCCGGTAATCCGTATTTGTA (site GCCACGTCTTA)”, the “recombinant UMI read abundance (log10)” value was 1.45.

As to “GCCACGCCATGGACCGGTTTTCCCGGTAATCCGTATTTGTA (site GCCACTCCTTA)”, the “recombinant UMI read abundance (log10)” value worked out at 0.

“GCCACGCCATGGACCGGTTTTCCCGGTAATCCGTATTTGTA (site GCCAGGCCTTA)”: the “recombinant UMI read abundance (log10)” value worked out at 0.013.

Turning to “GCCACGCCATGGACCGGTTTTCCCGGTAATCCGTATTTGTA (site GCCATGCCTTA)”, the “recombinant UMI read abundance (log10)” value was 0.465.

As to “GCCACGCCATGGACCGGTTTTCCCGGTAATCCGTATTTGTA (site GCCCCGCCTTA)”, the “recombinant UMI read abundance (log10)” value was 0.00659.

As for “GCCACGCCATGGACCGGTTTTCCCGGTAATCCGTATTTGTA (site GCCGCGCCTTA)”, the “recombinant UMI read abundance (log10)” value was 0.00414.

For “GCCACGCCATGGACCGGTTTTCCCGGTAATCCGTATTTGTA (site GCCTCGCCTTA)”, the “recombinant UMI read abundance (log10)” value was found to be 0.183.

For the sequence “GCCACGCCATGGACCGGTTTTCCCGGTAATCCGTATTTGTA (site GCGACGCCTTA)”, the “recombinant UMI read abundance (log10)” value amounted to 0.00719.

Take “GCCACGCCATGGACCGGTTTTCCCGGTAATCCGTATTTGTA (site GCTACGCCTTA)”: the “recombinant UMI read abundance (log10)” value came to 0.0265.

“GCCACGCCATGGACCGGTTTTCCCGGTAATCCGTATTTGTA (site GGCACGCCTTA)”: the “recombinant UMI read abundance (log10)” value is 0.204.

Consider “GCCACGCCATGGACCGGTTTTCCCGGTAATCCGTATTTGTA (site GTCACGCCTTA)”, for which the “recombinant UMI read abundance (log10)” value was 0.00531.

Consider “GCCACGCCATGGACCGGTTTTCCCGGTAATCCGTATTTGTA (site TCCACGCCTTA)”, for which the “recombinant UMI read abundance (log10)” value came to 0.00575.

Take “GCCACTCCATGGACCGGTTTTCCCGGTAATCCGTATTTGGG (site GCCACTCCTCC)”: the “recombinant UMI read abundance (log10)” value came to 0.0141.

On to “GCCACTCCATGGACCGGTTTTCCCGGTAATCCGTATTTGTA (site GCCACACCTTA)”, for which the “recombinant UMI read abundance (log10)” value stood at 0.0288.

Consider “GCCACTCCATGGACCGGTTTTCCCGGTAATCCGTATTTGTA (site GCCACCCCTTA)”, for which the “recombinant UMI read abundance (log10)” value was 0.0122.

Take “GCCACTCCATGGACCGGTTTTCCCGGTAATCCGTATTTGTA (site GCCACGCCTTA)”: the “recombinant UMI read abundance (log10)” value came to 0.00354.

In the case of “GCCACTCCATGGACCGGTTTTCCCGGTAATCCGTATTTGTA (site GCCACTCCTTA)”, the “recombinant UMI read abundance (log10)” value was 1.35.

Regarding “GCCAGGCCATGGACCGGTTTTCCCGGTAATCCGTATTTGAA (site GCCAGGCCTTT)”, the “recombinant UMI read abundance (log10)” value turned out to be 0.0165.

On to “GCCCAATCATGGACCGGTTTTCCCGGTAATCCGTATTTGGT (site GCCCAATCTAC)”, for which the “recombinant UMI read abundance (log10)” value worked out at 1.53.

As to “GCCCAGCCATGGACCGGTTTTCCCGGTAATCCGTATTTGGT (site GCCCAGCCTAC)”, the “recombinant UMI read abundance (log10)” value worked out at 0.0164.

Regarding “GCCCGCTCATGGACCGGTTTTCCCGGTAATCCGTATTTGCG (site GCCCGCTCTCG)”, the “recombinant UMI read abundance (log10)” value was found to be 2.44.

For “GCCCGTACATGGACCGGTTTTCCCGGTAATCCGTATTTGCT (site GCCCGTACTAG)”, the “recombinant UMI read abundance (log10)” value is 2.32.

Regarding “GCCCTTGCATGGACCGGTTTTCCCGGTAATCCGTATTTGAC (site GCCCTTGCTGT)”, the “recombinant UMI read abundance (log10)” value came out at 1.06.

For the sequence “GCCGATGCATGGACCGGTTTTCCCGGTAATCCGTATTTGGA (site GCCGATGCTTC)”, the “recombinant UMI read abundance (log10)” value was 1.45.

“GCCGCGGCATGGACCGGTTTTCCCGGTAATCCGTATTTGGA (site GCCGCGGCTTC)”: the “recombinant UMI read abundance (log10)” value turned out to be 0.468.

On to “GCCTACACATGGACCGGTTTTCCCGGTAATCCGTATTTGTC (site GCCTACACTGA)”, for which the “recombinant UMI read abundance (log10)” value came out at 1.8.

In the case of “GCCTACCCATGGACCGGTTTTCCCGGTAATCCGTATTTGGC (site GCCTACCCTGC)”, the “recombinant UMI read abundance (log10)” value came out at 0.

In the case of “GCCTATGCATGGACCGGTTTTCCCGGTAATCCGTATTTGTC (site GCCTATGCTGA)”, the “recombinant UMI read abundance (log10)” value was 1.57.

Consider “GCCTCGCCATGGACCGGTTTTCCCGGTAATCCGTATTTGCT (site GCCTCGCCTAG)”, for which the “recombinant UMI read abundance (log10)” value worked out at 0.

In the case of “GCCTCGCCATGGACCGGTTTTCCCGGTAATCCGTATTTGTA (site GCCACGCCTTA)”, the “recombinant UMI read abundance (log10)” value came out at 0.00387.

As to “GCCTCGCCATGGACCGGTTTTCCCGGTAATCCGTATTTGTA (site GCCCCGCCTTA)”, the “recombinant UMI read abundance (log10)” value came to 0.633.

For “GCCTCGCCATGGACCGGTTTTCCCGGTAATCCGTATTTGTA (site GCCGCGCCTTA)”, the “recombinant UMI read abundance (log10)” value was found to be 0.00878.

Turning to “GCCTCGCCATGGACCGGTTTTCCCGGTAATCCGTATTTGTA (site GCCTCGCCTTA)”, the “recombinant UMI read abundance (log10)” value worked out at 0.0151.

Turning to “GCCTGAACATGGACCGGTTTTCCCGGTAATCCGTATTTGCA (site GCCTGAACTTG)”, the “recombinant UMI read abundance (log10)” value amounted to 2.12.

With “GCCTTATCATGGACCGGTTTTCCCGGTAATCCGTATTTGAA (site GCCTTATCTTT)”, the “recombinant UMI read abundance (log10)” value was 0.731.

Regarding “GCGAAAACATGGACCGGTTTTCCCGGTAATCCGTATTTGCG (site GCGAAAACTAG)”, the “recombinant UMI read abundance (log10)” value is 0.

For the sequence “GCGAAAACATGGACCGGTTTTCCCGGTAATCCGTATTTGCG (site GCGAAAACTCG)”, the “recombinant UMI read abundance (log10)” value worked out at 2.63.

On to “GCGAAAACATGGACCGGTTTTCCCGGTAATCCGTATTTGCG (site GCGAAAACTGG)”, for which the “recombinant UMI read abundance (log10)” value amounted to 0.

Take “GCGAAAACATGGACCGGTTTTCCCGGTAATCCGTATTTGCG (site GCGAAAACTTG)”: the “recombinant UMI read abundance (log10)” value came to 0.

For “GCGAAAACATGGACCGGTTTTCCCGGTAATCCGTATTTGGT (site GCGAAAACTAA)”, the “recombinant UMI read abundance (log10)” value worked out at 0.0141.

For the sequence “GCGAAAACATGGACCGGTTTTCCCGGTAATCCGTATTTGGT (site GCGAAAACTAC)”, the “recombinant UMI read abundance (log10)” value amounted to 1.58.

With “GCGAAAACATGGACCGGTTTTCCCGGTAATCCGTATTTGGT (site GCGAAAACTAG)”, the “recombinant UMI read abundance (log10)” value came out at 0.

On to “GCGAAAACATGGACCGGTTTTCCCGGTAATCCGTATTTGGT (site GCGAAAACTAT)”, for which the “recombinant UMI read abundance (log10)” value was 0.

In the case of “GCGAAAGCATGGACCGGTTTTCCCGGTAATCCGTATTTGCT (site GCGAAAACTAG)”, the “recombinant UMI read abundance (log10)” value worked out at 0.

Turning to “GCGAAAGCATGGACCGGTTTTCCCGGTAATCCGTATTTGCT (site GCGAAACCTAG)”, the “recombinant UMI read abundance (log10)” value was determined as 0.

For “GCGAAAGCATGGACCGGTTTTCCCGGTAATCCGTATTTGCT (site GCGAAAGCTAG)”, the “recombinant UMI read abundance (log10)” value worked out at 1.01.

For the sequence “GCGAAAGCATGGACCGGTTTTCCCGGTAATCCGTATTTGCT (site GCGAAATCTAG)”, the “recombinant UMI read abundance (log10)” value is 0.

As for “GCGAACACATGGACCGGTTTTCCCGGTAATCCGTATTTGCT (site GCGAAAACTAG)”, the “recombinant UMI read abundance (log10)” value stood at 0.

Take “GCGAACACATGGACCGGTTTTCCCGGTAATCCGTATTTGCT (site GCGAACACTAG)”: the “recombinant UMI read abundance (log10)” value worked out at 1.91.

As for “GCGAACACATGGACCGGTTTTCCCGGTAATCCGTATTTGCT (site GCGAAGACTAG)”, the “recombinant UMI read abundance (log10)” value turned out to be 0.

Consider “GCGAACACATGGACCGGTTTTCCCGGTAATCCGTATTTGCT (site GCGAATACTAG)”, for which the “recombinant UMI read abundance (log10)” value came to 0.025.

Take “GCGAAGCCATGGACCGGTTTTCCCGGTAATCCGTATTTGTG (site GCGAAGCCTCA)”: the “recombinant UMI read abundance (log10)” value turned out to be 0.643.

“GCGAAGCCATGGACCGGTTTTCCCGGTAATCCGTATTTGTG (site GCGAAGCCTCC)”: the “recombinant UMI read abundance (log10)” value is 0.021.

“GCGAAGCCATGGACCGGTTTTCCCGGTAATCCGTATTTGTG (site GCGAAGCCTCG)”: the “recombinant UMI read abundance (log10)” value was 0.0255.

As to “GCGAAGCCATGGACCGGTTTTCCCGGTAATCCGTATTTGTG (site GCGAAGCCTCT)”, the “recombinant UMI read abundance (log10)” value was 1.98.

For the sequence “GCGAAGCCATGGACCGGTTTTCCCGGTAATCCGTATTTGTT (site GCGAAGCCTAA)”, the “recombinant UMI read abundance (log10)” value was found to be 1.14.

With “GCGACAACATGGACCGGTTTTCCCGGTAATCCGTATTTGCT (site GCGAAAACTAG)”, the “recombinant UMI read abundance (log10)” value stood at 0.

For the sequence “GCGACAACATGGACCGGTTTTCCCGGTAATCCGTATTTGCT (site GCGACAACTAG)”, the “recombinant UMI read abundance (log10)” value stood at 1.97.

With “GCGACAACATGGACCGGTTTTCCCGGTAATCCGTATTTGCT (site GCGAGAACTAG)”, the “recombinant UMI read abundance (log10)” value came to 0.

As for “GCGACAACATGGACCGGTTTTCCCGGTAATCCGTATTTGCT (site GCGATAACTAG)”, the “recombinant UMI read abundance (log10)” value was determined as 0.37.

With “GCGACAACATGGACCGGTTTTCCCGGTAATCCGTATTTGGT (site GCGACAACTAC)”, the “recombinant UMI read abundance (log10)” value was found to be 2.46.

As for “GCGATTCCATGGACCGGTTTTCCCGGTAATCCGTATTTGTC (site GCGATTCCTGA)”, the “recombinant UMI read abundance (log10)” value amounted to 1.78.

For the sequence “GCGCAGCCATGGACCGGTTTTCCCGGTAATCCGTATTTGGG (site GCGAAGCCTCC)”, the “recombinant UMI read abundance (log10)” value turned out to be 0.0174.
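Further: IS621 bridge recombinase in Escherichia coli cells against a fixed T5 target plasmid.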
